Assay results: patent publication US7968116B2, “Antitumor agent” (Otsuka Pharmaceutical Co., Ltd., priority 2005, dated 2011)
Where two headings read alike, the source gives them in different places.

Test system: HT-29 (human) cancer cell line
Assay: Cell proliferation inhibitory effect (MTT assay) on cultured cancer cell line HT-29
Type: cell-based
Settings: HT-29 cells; for IC50: incubation at 37° C. for three days, MTT assay, read-out: CPI50 (concentration required for attaining 50% CPI, percent cell proliferation inhibition)
Protocol: A cultured cancer cell line (HT-29 (human)) was inoculated into a 96-well plate (1×10^4 cells/100 μL/well), and subsequently the GlcNAc-cholestanol-compound-containing liposomal formulation or cyclodextrin inclusion complexation prepared in Example 1 was added to the 96-well plate, followed by incubation at 37° C. for three days. Thereafter, the MTT assay was performed, and the number of cells was determined. Percent cell proliferation inhibition was obtained by use of the below-described formula.
Percent cell proliferation inhibition (percent CPI) (%)=(1 −OD of treated cells/OD of non-treated cells)×100 [E1]
OD of treated cells and OD of non-treated cells were measured at 450 nm and 650 nm, respectively (according to the MTT assay).

[1] = Cyclodextrin inclusion complexation

Row | SMILES | IC50 [1] | IC50 (Liposomal formulation) | cell proliferation inhibitory effect (in words) (liposomal formulation or cyclodextrin inclusion complexation, three days)
1 | CC(C)CCC[C@@H](C)[C@H]1CC[C@H]2[C@@H]3CC[C@H]4C[C@@H](O)CC[C@]4(C)[C@H]3CC[C@]12C [Chol, cholestanol] | > 1000 µM | 354 µM | 
2 | CC(C)CCC[C@@H](C)[C@H]1CC[C@H]2[C@@H]3CCC4CC(OC5O[C@H](CO)[C@H](O)[C@H](O)[C@H]5O)CC[C@]4(C)[C@H]3CC[C@]12C (stereo partly drawn) [GalChol, Galp-cholestanol] | 37.4 µM | 12.7 µM | 
3 | CC(=O)N[C@H]1[C@H](O[C@H]2[C@@H](O)[C@@H](CO)O[C@@H](O[C@H]3CC[C@@]4(C)[C@@H](CC[C@@H]5[C@@H]4CC[C@]4(C)[C@@H]([C@H](C)CCCC(C)C)CC[C@@H]54)C3)[C@@H]2O)O[C@H](CO)[C@@H](O)[C@@H]1O [GlcNAcGalChol, GlcNAcβ1,3Galβ-cholestanol] | 15.9 µM | 10.2 µM | 
4 | CC(=O)N[C@H]1[C@H](O[C@H]2CC[C@@]3(C)[C@@H](CC[C@@H]4[C@@H]3CC[C@]3(C)[C@@H]([C@H](C)CCCC(C)C)CC[C@@H]43)C2)O[C@H](CO)[C@@H](O)[C@@H]1O [GlcNacChol, 5-α-cholestan-3β-yl-2-acetamido-2-deoxy-β-D-glucopyranoside] | 8.8 µM | 10.4 µM | strong cell proliferation inhibitory effect
